Data as given in ChEMBL document CHEMBL1158181, “Studies of trypanocidal (inhibitory) power of naphthoquinones: evaluation of quantum chemical molecular descriptors for structure-activity relationships” (Eur J Med Chem, 2008).

How the values were obtained:
Crithidia fasciculata = assay: Antitrypanosomal activity against Crithidia fasciculata; type: functional, organism-based
Leptomonas seymouri = assay: Antitrypanosomal activity against Leptomonas seymouri; type: functional, organism-based
[1] = Oxidation of dihydrolipoamide assessed as oxygen consumption at 50 uM; type: physicochemical
[2] = Oxidation of dithiothreitol assessed as oxygen consumption at 50 uM; type: physicochemical

## CC1=Cc2c(C(C)C)ccc(C)c2C(=O)C1=O
Crithidia fasciculata
  IC50: 6000 nM
Leptomonas seymouri
  IC50: 4000 nM
[1]
  Activity: 434 µM/min

## CC1=COC2=C(C)C(=O)C(=O)c3c(C)ccc1c32 [MANSONONE F]
Crithidia fasciculata
  IC50: 300 nM
Leptomonas seymouri
  IC50: 100 nM
[1]
  Activity: 58 µM/min
[2]
  Activity: 14 µM/min

## CC1(c2ccccc2)CCC2=C(O1)c1ccccc1C(=O)C2=O (centres undefined)
Crithidia fasciculata
  IC50: 700 nM
Leptomonas seymouri
  IC50: 700 nM
[1]
  Activity: 990 µM/min
[2]
  Activity: 315 µM/min

## CC1=C2OCC(C)c3ccc(C)c(c32)C(=O)C1=O (centres undefined) [MANSONONE E]
Crithidia fasciculata
  IC50: 600 nM
Leptomonas seymouri
  IC50: 400 nM
[1]
  Activity: 276 µM/min
[2]
  Activity: 66 µM/min

## CC1(C)CCC2=C(O1)C(=O)c1ccccc1C2=O [ALPHA-LAPACHONE]
Crithidia fasciculata
  IC50: 27000 nM
Leptomonas seymouri
  IC50: 4100 nM
[1]
  Activity: 7 µM/min
[2]
  Activity: 1 µM/min

## CC1(C)CCC2=C(O1)c1cc(Cl)ccc1C(=O)C2=O
Crithidia fasciculata
  IC50: 800 nM
Leptomonas seymouri
  IC50: 400 nM
[1]
  Activity: 879 µM/min
[2]
  Activity: 470 µM/min

## CCC1(C)CCC2=C(O1)c1ccccc1C(=O)C2=O (centres undefined)
Crithidia fasciculata
  IC50: 800 nM
Leptomonas seymouri
  IC50: 300 nM
[1]
  Activity: 733 µM/min
[2]
  Activity: 208 µM/min

## CC1(C)CCC2=C(O1)c1ccccc1C(=O)C2=O [LAPACHONE]
Leptomonas seymouri
  IC50: 400 nM
[1]
  Activity: 808 µM/min
[2]
  Activity: 238 µM/min

## CC1=CC2=C(C(=O)C1=O)C(C)CCC2C(C)C (centres undefined) [MANSONONE A]
Crithidia fasciculata
  IC50: 15000 nM
Leptomonas seymouri
  IC50: 8500 nM
[1]
  Activity: 26 µM/min
[2]
  Activity: 37 µM/min
